Test results published in patent publication US20150024008A1, “Methods and Compositions Involving Induced Senescent Cells for Cancer Treatment” (THE UNIVERSITY OF CHICAGO, priority 2011, published 2015).

System: 22Rv1 (human) prostate carcinoma cells
Test: Flow cytometric detection of SA-βGal with DDAO-G
Type: cell-based
Description: Prostate carcinoma (PCa) cell lines included 22Rv1 (human) and TRAMP-C2 (murine, ATCC). PCa cell lines were propagated in complete culture medium using sterile culture flasks in a humidified, 5% CO2 incubator at 37° C. For 22Rv1 human PCa cells, complete media consisted of RPMI-1640 1× (modified without L-glutamine, Invitrogen) supplemented with fetal bovine serum (FBS, 10%, Gemini Biosciences), stabilized L-glutamine (2 mM, Gemini Biosciences), and penicillin-streptomycin solution (100 U/ml penicillin, 100 μg/ml streptomycin, Invitrogen). For TRAMP-C2 murine PCa cells, complete medium consisted of DMEM (modified with 4.5 g/l glucose and without L-glutamine, Invitrogen) supplemented with FBS (5%), Nu-Serum IV (5%, BD Biosciences), stabilized L-glutamine (4 mM), dehydroisoandrosterone (10 nM, Sigma-Aldrich), bovine insulin (5 μg/ml, Sigma-Aldrich), and penicillin-streptomycin solution (100 U/ml penicillin, 100 μg/ml streptomycin).
Cells were plated at low density (˜25×10^3 cells/cm^2) and incubated overnight to allow adherence to culture surfaces. The following day, PARP inhibitor veliparib (ABT-888, 10 μM in DMSO, ChemieTek) was added (or not) to freshly changed media to enhance uptake of the compound. Cells were incubated with veliparib for 60 minutes at 37° C. in 5% CO2 prior to gamma irradiation (IR, 6 Gy). Treated and untreated cells were then incubated undisturbed for 5 days to allow senescence to proceed.
Cells were pelleted by centrifugation for 5 minutes at 1000×g, supernatant removed, and pellet resuspended in 1% bovine serum albumin (BSA, United States Biological) in DPBS. Cell suspensions were counted (cells/mL) using a handheld counting device (Scepter, Millipore). […]
Analysis of SA-βGal signal was conducted by flow cytometry, using an LSRII cytometer (Becton Dickinson) equipped with a 633 nm red diode laser and a 670/30 (APC) bandpass filter suitable for DDAO red fluorescent signal excitation and emission detection. […] Single, whole cells were then visualized on a red-fluorescence vs SSC-A plot in order to define senescent SA-βGal^+ SSC^high cells. […]

[1] = veliparib+IR cells, FSC vs. SSC

C[C@]1(c2nc3c(C(N)=O)cccc3[nH]2)CCCN1 [veliparib, (R)-2-(2-methylpyrrolidin-2-yl)-1H-benzo[d]imidazole-4-carboxamide]
B-Gal high cells within the region shown by the black rectangle [1]: 41% | B-Gal- or B-Gal low cells within the region shown by the black rectangle [1]: 59% | cells in senescent gate (B-Gal vs. SSC) (veliparib+IR treated viable cells): 20%
